# Data as given in ChEMBL document CHEMBL1201862, “PubChem BioAssay data set” (2004).
# Activity calls are given as the source filed them.
# Experiments:
# [1] = target: T1, Polyadenylate-binding protein 1 (Homo sapiens, UniProt P11940); experiment: PABP1 MLLE–PAM2 binding inhibitor potency, dose response, biochemical, fluorescence polarization, FITC-PAM2 peptide (AID 602259); format: functional; details: read-out: IC50_Mean
# [2] = inhibitors of intracellular T. cruzi replication, confirmation, NIH3T3 host cells, beta-gal luminescence (AID 2044); format: functional, cell-based;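 also: intracellular parasites grown in NIH/3T3 mouse fibroblasts as host cells; luminescent beta-galactosidase reporter signal from transgenic T. cruzi replicating inside host cells; inhibitors lower the luminescence signal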
# Coagulation factor XII = target: T2, Coagulation factor XII (Homo sapiens, UniProt P00748); format: functional;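 also: activated factor XIIa alpha cleaving a fluorogenic AMC peptide substrate; inhibitor potency from loss of enzyme activity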
# T2 sequence (P00748 whole entry): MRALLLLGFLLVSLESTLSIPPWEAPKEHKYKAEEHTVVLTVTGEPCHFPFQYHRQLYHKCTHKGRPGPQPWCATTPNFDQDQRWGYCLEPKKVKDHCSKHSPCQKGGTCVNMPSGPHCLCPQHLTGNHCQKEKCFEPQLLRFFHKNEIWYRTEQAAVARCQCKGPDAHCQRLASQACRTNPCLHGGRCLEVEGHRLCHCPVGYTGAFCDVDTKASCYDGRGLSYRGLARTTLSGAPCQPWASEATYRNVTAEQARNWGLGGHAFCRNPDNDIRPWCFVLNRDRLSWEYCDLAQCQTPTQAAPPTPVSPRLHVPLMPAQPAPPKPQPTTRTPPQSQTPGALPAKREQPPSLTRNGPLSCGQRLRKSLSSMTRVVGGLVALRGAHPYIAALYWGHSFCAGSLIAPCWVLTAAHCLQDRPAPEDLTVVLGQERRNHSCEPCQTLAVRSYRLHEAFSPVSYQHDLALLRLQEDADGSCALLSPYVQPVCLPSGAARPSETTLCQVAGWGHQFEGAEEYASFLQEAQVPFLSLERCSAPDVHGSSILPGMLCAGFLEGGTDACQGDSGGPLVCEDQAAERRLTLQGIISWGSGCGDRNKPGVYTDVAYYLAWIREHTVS
# [3] = target: Latent membrane protein 1 (Human herpesvirus 4 (strain B95-8), UniProt P03230); experiment: TES1-eGFP NF-kB reporter inhibition versus Tet-On dsRED, dose response, selectivity assay for LMP1 NF-kB inhibitor project, imaging, HEK293T, dual-color eGFP/dsRED, cherry-picks (AID 588398); format: functional, cell-based
# Chain of Latent membrane protein 1 (P03230 whole entry): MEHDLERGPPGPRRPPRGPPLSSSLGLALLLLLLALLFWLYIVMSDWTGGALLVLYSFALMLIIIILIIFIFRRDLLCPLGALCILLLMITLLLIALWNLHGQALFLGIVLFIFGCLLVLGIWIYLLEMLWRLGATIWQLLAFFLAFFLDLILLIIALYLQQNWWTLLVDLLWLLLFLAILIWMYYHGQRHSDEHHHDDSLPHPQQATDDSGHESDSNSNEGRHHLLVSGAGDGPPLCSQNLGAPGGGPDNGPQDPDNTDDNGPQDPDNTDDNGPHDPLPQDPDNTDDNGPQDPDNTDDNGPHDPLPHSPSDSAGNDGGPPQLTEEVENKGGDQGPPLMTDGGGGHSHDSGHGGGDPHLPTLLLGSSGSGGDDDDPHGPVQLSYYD
# [4] = cytotoxicity toward NIH3T3 fibroblasts, dose response, counter-screen, cell-based, ATP luminescence, mouse fibroblasts (AID 2010); format: functional;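 also: cells exposed to compound for about 90 hours before reading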
# [5] = target: T1, Polyadenylate-binding protein 1; experiment: PABP1 MLLE–PAM2 interaction inhibitors, dose response, miRNA deadenylation inhibitor project, biochemical, fluorescence polarization, Cy5-PAM2 peptide, secondary (AID 602260); format: functional; details: read-out: IC50_Mean
# [6] = target: Heat shock protein HSP 90-alpha (Homo sapiens, UniProt P07900); format: functional, organism-based
# INS1 = experiment: beta cell apoptosis inhibitors, cytokine rescue, dose response, luminescence, retest (AID 449756); format: functional, cell-based; details: Rattus norvegicus;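 also: cell death triggered by IL-1 beta plus TNF-alpha plus IFN-gamma mixture; protective hits raise ATP signal compared with cytokine alone wells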
# Streptococcus = experiment: Group A Streptococcus viability loss, dose response, counter-screen for streptokinase expression inhibitor project, luminescence, BacTiterGlo (AID 1915); format: functional, organism-based;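 also: potency for reduction of bacterial viability or growth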
# [7] = inhibitors of SNCA 5'UTR-driven reporter translation, confirmation, H4 neuroglioma cells, luminescence (AID 1988); format: functional, cell-based
# [8] = Luminescence Cell-Based Dose Response HTS to Identify Inhibitors of 5'UTR Stem-Loop Driven Prion Protein mRNA Translation in H4 Neuroglioblastoma Cells. [Related pubchem assays: 1827 (Project Summary), 1813 (Primary HTS)]; format: functional
# [9] = target: T3, Type-1 angiotensin II receptor (Homo sapiens, UniProt P30556); experiment: AT1 receptor antagonists, dose response, selectivity assay for APJ receptor antagonist project, cell-based, uHTS hits (AID 463214); format: functional;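 also: antagonist potency against angiotensin II stimulated AT1 response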
# T3 sequence (P30556 whole entry): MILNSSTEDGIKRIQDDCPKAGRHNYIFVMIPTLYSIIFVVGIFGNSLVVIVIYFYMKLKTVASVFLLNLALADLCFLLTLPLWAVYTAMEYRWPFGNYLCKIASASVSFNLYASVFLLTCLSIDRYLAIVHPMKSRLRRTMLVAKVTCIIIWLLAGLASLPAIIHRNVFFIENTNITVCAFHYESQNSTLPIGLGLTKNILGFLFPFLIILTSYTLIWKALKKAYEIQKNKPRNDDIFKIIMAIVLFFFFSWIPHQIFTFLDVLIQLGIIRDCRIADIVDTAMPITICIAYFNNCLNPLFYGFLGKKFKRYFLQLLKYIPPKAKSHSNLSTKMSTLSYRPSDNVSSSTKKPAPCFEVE
# [10] = microbe, parasite or virus in culture; format: functional; details: Mycobacterium tuberculosis
# [11] = inhibitors of firefly luciferase expression or activity, dose response, H4 neuroglioma cells, luminescence (AID 1990); format: functional, cell-based
# Beta-galactosidase = Beta-galactosidase (Escherichia coli, UniProt Q8VNN2); experiment: PubChem AID 485352; format: functional
# Chain of Beta-galactosidase (Q8VNN2 whole entry): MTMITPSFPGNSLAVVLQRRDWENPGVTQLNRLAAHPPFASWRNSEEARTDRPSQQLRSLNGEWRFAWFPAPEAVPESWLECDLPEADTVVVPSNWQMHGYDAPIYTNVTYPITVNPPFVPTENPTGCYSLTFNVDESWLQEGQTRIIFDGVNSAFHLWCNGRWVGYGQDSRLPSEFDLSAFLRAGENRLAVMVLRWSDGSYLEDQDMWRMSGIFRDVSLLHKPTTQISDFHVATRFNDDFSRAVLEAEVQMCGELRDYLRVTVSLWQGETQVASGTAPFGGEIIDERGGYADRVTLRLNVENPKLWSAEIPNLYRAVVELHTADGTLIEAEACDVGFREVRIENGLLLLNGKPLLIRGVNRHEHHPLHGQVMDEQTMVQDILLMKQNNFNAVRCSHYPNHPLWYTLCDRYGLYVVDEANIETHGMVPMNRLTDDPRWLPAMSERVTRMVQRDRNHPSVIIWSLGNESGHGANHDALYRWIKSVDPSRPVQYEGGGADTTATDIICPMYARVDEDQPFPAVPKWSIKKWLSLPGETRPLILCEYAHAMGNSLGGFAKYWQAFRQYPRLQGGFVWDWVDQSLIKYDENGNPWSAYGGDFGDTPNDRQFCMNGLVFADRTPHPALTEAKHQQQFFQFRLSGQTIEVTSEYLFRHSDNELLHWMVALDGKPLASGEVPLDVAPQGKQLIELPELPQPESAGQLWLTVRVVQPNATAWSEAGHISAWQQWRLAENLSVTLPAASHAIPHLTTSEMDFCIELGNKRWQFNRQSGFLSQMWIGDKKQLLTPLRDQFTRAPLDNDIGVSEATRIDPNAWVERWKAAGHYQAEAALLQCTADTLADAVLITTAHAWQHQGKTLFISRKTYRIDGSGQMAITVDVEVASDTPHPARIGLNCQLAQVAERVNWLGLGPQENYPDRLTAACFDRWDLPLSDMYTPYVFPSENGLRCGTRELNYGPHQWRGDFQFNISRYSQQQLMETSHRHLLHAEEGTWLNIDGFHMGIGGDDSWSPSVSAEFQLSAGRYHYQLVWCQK
# [12] = tested on: Streptococcus sp. 'group A'; experiment: growth inhibition of control SK(-) GAS strain, dose response, counter-screen for streptokinase expression inhibitor project, luminescence, kanamycin, BacTiterGlo, confirmation (AID 1900); format: functional, organism-based
# [13] = cytotoxicity in KRAS-transformed pancreatic duct cells, primary screen, cell-based, fluorescence, HTS (AID 431); format: functional; details: Homo sapiens;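 also: cell line used: HPDE-C7K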
# [14] = HeLa cell cytotoxicity, dose response, cytotoxicity control for MgcRacGAP inhibitor project (AID 624300); format: functional
# [15] = cytotoxicity in HPDE-C7 cells, cell-based, fluorescence, HTS (AID 430); format: functional; details: Homo sapiens
# [16] = Fluorescence-based cell-based high throughput dose response assay for inhibitors of the interaction of nucleotide-binding oligomerization domain containing 2 (NOD2) and the receptor-interacting serine-threonine kinase 2 (RIPK2).; format: functional; details: Homo sapiens
# Phospholipase D2 = Phospholipase D2 (Homo sapiens, UniProt O14939); experiment: PLD2 inhibitor potency in cells, dose response (AID 602147); format: functional;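 also: cellular assay in HEK293 cells overexpressing GFP-tagged PLD2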
# Chain of Phospholipase D2 (O14939 whole entry): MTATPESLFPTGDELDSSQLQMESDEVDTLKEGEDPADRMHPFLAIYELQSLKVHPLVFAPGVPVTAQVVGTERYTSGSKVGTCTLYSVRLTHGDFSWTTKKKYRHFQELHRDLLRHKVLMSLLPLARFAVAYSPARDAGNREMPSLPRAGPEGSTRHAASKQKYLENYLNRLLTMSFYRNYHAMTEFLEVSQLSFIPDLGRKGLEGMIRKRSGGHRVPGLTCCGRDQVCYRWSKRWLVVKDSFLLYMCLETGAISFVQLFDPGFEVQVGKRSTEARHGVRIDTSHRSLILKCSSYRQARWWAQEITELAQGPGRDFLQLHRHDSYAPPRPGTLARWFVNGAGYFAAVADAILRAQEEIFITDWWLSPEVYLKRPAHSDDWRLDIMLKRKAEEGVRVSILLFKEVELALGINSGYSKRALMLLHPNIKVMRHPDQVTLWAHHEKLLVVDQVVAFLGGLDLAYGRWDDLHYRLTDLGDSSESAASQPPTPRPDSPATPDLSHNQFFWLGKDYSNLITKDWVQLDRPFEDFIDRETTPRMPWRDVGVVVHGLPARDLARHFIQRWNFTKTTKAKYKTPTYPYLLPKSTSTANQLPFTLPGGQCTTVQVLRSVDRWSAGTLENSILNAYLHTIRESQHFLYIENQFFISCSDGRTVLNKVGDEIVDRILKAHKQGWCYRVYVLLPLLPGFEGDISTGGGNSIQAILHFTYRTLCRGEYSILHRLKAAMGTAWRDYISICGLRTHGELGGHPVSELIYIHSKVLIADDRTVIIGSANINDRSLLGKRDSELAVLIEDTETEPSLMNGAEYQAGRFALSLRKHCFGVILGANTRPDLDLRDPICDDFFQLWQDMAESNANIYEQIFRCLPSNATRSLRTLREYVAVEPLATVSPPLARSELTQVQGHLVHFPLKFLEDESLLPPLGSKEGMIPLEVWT
# Phospholipase D1 = Phospholipase D1 (Homo sapiens, UniProt Q13393); experiment: PLD1 inhibitor potency in cells, dose response (AID 602151); format: functional;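 also: cellular PLD1 assay in Calu-1 cells stimulated with PMA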
# Chain of Phospholipase D1 (Q13393 whole entry): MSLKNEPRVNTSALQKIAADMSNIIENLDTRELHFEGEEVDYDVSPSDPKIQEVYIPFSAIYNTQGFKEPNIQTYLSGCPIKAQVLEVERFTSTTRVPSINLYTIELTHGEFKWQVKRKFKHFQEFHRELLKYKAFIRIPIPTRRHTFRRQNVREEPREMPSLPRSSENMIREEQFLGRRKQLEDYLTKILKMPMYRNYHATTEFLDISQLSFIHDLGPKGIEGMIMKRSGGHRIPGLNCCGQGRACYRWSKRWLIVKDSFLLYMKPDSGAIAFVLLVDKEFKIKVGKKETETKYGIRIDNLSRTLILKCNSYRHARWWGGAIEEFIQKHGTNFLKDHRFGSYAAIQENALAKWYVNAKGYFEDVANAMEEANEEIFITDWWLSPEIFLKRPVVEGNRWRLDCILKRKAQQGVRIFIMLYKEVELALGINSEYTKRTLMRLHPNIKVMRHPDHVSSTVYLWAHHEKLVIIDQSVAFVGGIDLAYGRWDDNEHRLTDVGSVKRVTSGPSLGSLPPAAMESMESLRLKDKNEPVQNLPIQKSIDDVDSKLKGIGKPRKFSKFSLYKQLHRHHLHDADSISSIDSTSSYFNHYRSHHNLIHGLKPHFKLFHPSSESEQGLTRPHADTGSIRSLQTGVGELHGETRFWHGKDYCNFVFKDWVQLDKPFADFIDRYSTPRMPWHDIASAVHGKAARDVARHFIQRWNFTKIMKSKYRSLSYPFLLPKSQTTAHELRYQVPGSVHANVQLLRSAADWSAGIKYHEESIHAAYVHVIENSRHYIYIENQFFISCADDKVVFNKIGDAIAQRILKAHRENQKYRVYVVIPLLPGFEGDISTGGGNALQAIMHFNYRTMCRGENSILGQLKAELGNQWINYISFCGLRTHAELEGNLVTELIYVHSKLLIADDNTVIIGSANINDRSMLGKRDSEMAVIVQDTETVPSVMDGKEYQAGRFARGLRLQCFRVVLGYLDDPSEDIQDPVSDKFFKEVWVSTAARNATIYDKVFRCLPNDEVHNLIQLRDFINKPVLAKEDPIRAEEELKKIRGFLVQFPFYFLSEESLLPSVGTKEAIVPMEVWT
# T1 sequence (P11940 whole entry): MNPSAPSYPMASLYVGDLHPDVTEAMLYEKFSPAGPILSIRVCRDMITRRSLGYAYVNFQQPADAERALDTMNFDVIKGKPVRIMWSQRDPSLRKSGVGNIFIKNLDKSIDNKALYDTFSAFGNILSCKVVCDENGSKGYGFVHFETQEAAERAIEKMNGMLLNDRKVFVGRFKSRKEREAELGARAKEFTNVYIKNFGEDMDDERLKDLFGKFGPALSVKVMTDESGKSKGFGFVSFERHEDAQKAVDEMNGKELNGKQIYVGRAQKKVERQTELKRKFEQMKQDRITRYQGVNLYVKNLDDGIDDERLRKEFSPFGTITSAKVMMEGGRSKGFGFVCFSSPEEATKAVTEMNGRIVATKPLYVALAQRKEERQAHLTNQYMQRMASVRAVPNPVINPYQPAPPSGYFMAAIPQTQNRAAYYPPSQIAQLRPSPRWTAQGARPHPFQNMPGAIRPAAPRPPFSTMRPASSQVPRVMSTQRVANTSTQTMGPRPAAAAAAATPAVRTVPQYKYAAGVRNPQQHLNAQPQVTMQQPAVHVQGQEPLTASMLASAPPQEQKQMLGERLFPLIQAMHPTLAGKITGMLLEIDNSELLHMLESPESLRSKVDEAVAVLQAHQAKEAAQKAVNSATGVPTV
smiles,measurement,setting,value
C=CCn1c(O)c(N=NC(S)=Nc2ccccc2F)c2cc(S(=O)(=O)N3CCOCC3)ccc21,IC50,[1],> 66 µM (inactive)
same,EC50,[2],0.495 µM (active)
same,IC50,Coagulation factor XII,> 50 µM (inconclusive)
same,AC50,[3],38.3 µM (active)
same,EC50,[4],2.84 µM (active)
same,IC50,[5],> 66 µM (inactive)
CNc1ccc2oc(C[C@H]3O[C@@]4(CC[C@H]3C)O[C@H]([C@H](C)C(=O)c3ccc[nH]3)[C@H](C)C[C@H]4C)nc2c1C(=O)O [CALCIMYCIN],AC50,[6],1.07 µM (active)
same,AC50,INS1,2.08 µM (active)
same,EC50,Streptococcus,0.128 µM (active)
same,EC50,[7],0.172 µM (active)
same,EC50,[8],0.267 µM (active)
same,IC50,[9],> 40 µM (not active)
same,CC50,[10],0.319 µM (active)
same,EC50,[11],0.293 µM (active)
same,EC50,Beta-galactosidase,> 40 µM (inactive)
same,EC50,[12],< 0.06 µM (active)
CC1(C)CC(=O)C2=C(C1)OC1=C(C(=O)CC(C)(C)C1)C2c1ccc(O)cc1O,EC50,[13],7.07 µM (active)
same,CC50,[14],50 µM (active)
same,AC50,INS1,6.76 µM (active)
same,IC50,[9],9.76 µM (active)
same,EC50,[15],5.63 µM (active)
same,IC50,[16],1.36 µM (active)
same,EC50,Beta-galactosidase,> 40 µM (inactive)
O=C(NCCN1CCC2(CC1)C(=O)NCN2c1cccc(F)c1)c1cccc(F)c1,IC50,Phospholipase D2,1.49 µM (active)
same,IC50,Phospholipase D1,24 µM (active)
Cc1ccc(C(=O)N[C@@H](C)CN2CCC(n3c(=O)[nH]c4cc(Cl)ccc43)CC2)cc1,IC50,Phospholipase D2,1.05 µM (active)
same,IC50,Phospholipase D1,0.011 µM (active)
